Reference: patent US11426405B2, “Inhibition of JAK-STAT signaling inhibits formation of neutrophil extracellular traps (NETs)” (The Brigham and Women's Hospital, Inc., priority 2017, dated 2022)
Where “and” joins values, the source holds several entries; their conditions need not be identical. Identical values can stand only once.

B1: DNase: deoxyribonuclease (DNase; Pulmozyme, Genentech), disrupts NET structures (protein, UniProt P24855 23-282, looked up)
Deoxyribonuclease-1: LKIAAFNIQTFGETKMSNATLVSYIVQILSRYDIALVQEVRDSHLTAVGKLLDNLNQDAPDTYHYVVSEPLGRNSYKERYLFVYRPDQVSAVDSYYYDDGCEPCGNDTFNREPAIVRFFSRFTEVREFAIVPLHAAPGDAVAEIDALYDVYLDVQEKWGLEDVMLMGDFNAGCSYVRPSQWSSIRLWTSPTFQWLIPDSADTTATPTHCAYDRIVVAGMLLRGAVVPDSALPFNFQAAYGLSDQLAQAISDHYPVEVMLK

What was measured:
[1] = system: neutrophils from patients with MPNs; experiment: NET formation in neutrophils from MPN patients receiving a JAK inhibitor; assay type: cell-based, human; conditions: individual JAK inhibitor-treated MPN patients; 4 μM ionomycin stimulation; some patients also on ASA or Hydrea
Text: Whole blood was collected into ethylenediaminetetraacetic acid (EDTA)-coated tubes. Patients and controls were excluded if they had conditions that are known or suspected to affect NET formation such as active infection, active cancer (37), history of an autoimmune disease (38), treatment with immunosuppressive or anti-inflammatory drugs or history of diabetes (29). In addition, patients with recent history of infection, trauma or surgery (3 months before blood draw) were excluded. Therapy with acetylsalicylic acid (aspirin), hydroxyurea or anagrelide was allowed. […]
Neutrophil isolation and NET formation were carried out as previously described (39). […] Purity of cells was >95% as determined by Wright-Giemsa staining (FIG. 5B). For the screening NET assay, NET-bound neutrophil elastase was quantified using an available commercial kit according to manufacturer's instructions (Cayman chemical). […]
Fixed cells were processed as detailed above. Immunostaining, fluorescence microscopy and NET quantification procedures were similar for human and mouse specimens. […]
Images were acquired on an Axiovert 200M wide-field fluorescence microscope (Zeiss) coupled to an AxioCam MR3 monochromatic CCD camera (Zeiss) using a Zeiss Plan-Neofluar 20×/0.4 Con Ph2 objective lens with the Zeiss AxioVision software (version 4.6.3.0). […]

[2] = system: Jak2^WT and Jak2^V617F mice; experiment: Venous stenosis model: partial ligation of the inferior vena cava; assay type: in vivo, mouse; conditions: for Thrombus formation rate (clots/mice): DNase 50 μg i.p. and 10 μg i.v. after surgery
Protocol: Sections were allowed to come to room temperature, before rinsing in PBS with 0.1% Tween 20 (PBST). Sections were blocked for 1 hour at room temperature with 10% FBS in PBST in a humidified chamber. Sections were incubated in the same chamber overnight at 4° C. with the primary antibodies described above against Ly6G and H3^cit in 10% FBS in PBST. Slides were rinsed in PBST before incubating with the secondary antibody under the same conditions as used for the primary antibody (goat anti-rat Ig (IgG) (Alexa555, 1.5 μg/mL) or donkey anti-rabbit IgG (Alexa647, 1.5 μg/mL). After a further wash in PBST sections were stained with DAPI and mounted as described above. Sections were visualized using Axiolmager D1 (Carl Zeiss Microscopy) and images taken using Axiocam MRc Camera (Carl Zeiss Microscopy). Zen software 2.3 (version 13) was used to analyze images. For the final images used in the figures, Alexa647 was represented using green.
After bone marrow harvest, c-Kit positive marrow cells were obtained from VavCre/Jak2^V617F KI mice using CD117 Microbeads according to manufacturer's instructions (Miltenyi Bitotec).
DNase 1 (Pulmozyme, Genentech) was diluted in sterile saline and injected immediately after surgery (50 μg intraperitoneally and 10 μg intravenously via tail vein). […] Mice were assessed for thrombosis at 4 hours.

| Molecule | % NET formation [1] | Thrombosis rate at 2 hours post-IVC ligation ([2]; Jak2^V617F mice, ruxolitinib 90 mg/kg twice a day for 72 hours, vehicle 45%) | Thrombosis rate at 4 hours post-IVC ligation ([2]; Jak2^V617F mice, ruxolitinib 90 mg/kg twice a day for 72 hours, vehicle 71%) | Thrombus formation rate (clots/mice) ([2]; Jak2^V617F mice, vehicle 5/7, p=0.007) | Thrombus formation rate (clots/mice) ([2]; Jak2^WT mice, vehicle 5/8, p=0.06) |
| --- | --- | --- | --- | --- | --- |
| N#CC[C@H](C1CCCC1)n1cc(-c2ncnc3[nH]ccc23)cn1 [Ruxolitinib] | 1.5% and 5.9% and 5.4% and 5.5% | 0% | 21% |  |  |
| C[C@H](Nc1cc(-c2cnn(C)c2)cc(Nc2cnccn2)n1)c1ccc(F)cc1 [NS-018] | 6.9% |  |  |  |  |
| B1 |  |  |  | 0/8 | 1/7 |
